This is an account of results in the supplement of paper PMC10627819.

Holding throughout (experiment): Bliss interaction score (quartile over a dose matrix) (fitness difference); higher = more antagonism (negative = synergy)
The subject of one experiment is S. pneumoniae D39V. A digest of the protocol:
(§1)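 Combination data were used to infer fitness under each single drug. Fitness is the OD595 at entry into stationary phase divided by the robust mean of the plate's no-drug wells, with a cap of 1. The Bliss score is the observed minus the expected product fitness, summarised by quartiles over technical, biological and donor/recipient replicates.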

The next experiment concerns B. subtilis 168. A digest of the protocol:
as §1

The subject of a further experiment is S. aureus Newman. A digest of the protocol: as §1
The subject of the next experiment is S. aureus DSM 20231. A digest of the protocol:
as §1
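Further: first quartile when negative (synergy) and third quartile when positive (antagonism).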

For the molecule `CC[C@H](C)[C@H](N)C1=N[C@H](C(=O)N[C@@H](CC(C)C)C(=O)N[C@H](CCC(=O)O)C(=O)N[C@H](C(=O)N[C@H]2CCCCNC(=O)[C@H](CC(N)=O)NC(=O)[C@@H](CC(=O)O)NC(=O)[C@H](Cc3cnc[nH]3)NC(=O)[C@@H](Cc3ccccc3)NC(=O)[C@H]([C@@H](C)CC)NC(=O)[C@@H](CCCN)NC2=O)[C@@H](C)CC)CS1` [Bacitracin] + CO[C@H]1/C=C/O[C@@]2(C)Oc3c(C)c(O)c4c(O)c(c(/C=N/N5CCN(C)CC5)c(O)c4c3C2=O)NC(=O)/C(C)=C\C=C\[C@H](C)[C@H](O)[C@@H](C)[C@@H](O)[C@@H](C)[C@H](OC(C)=O)[C@@H]1C [Rifampicin], the Bliss interaction score was 0.104 in the experiment on S. pneumoniae D39V (main component drawn), -0.0806 with B. subtilis 168 (main component drawn), -0.0236 in the experiment with S. aureus Newman (main component drawn) and 0.0174 with S. aureus DSM 20231 (main component drawn).

Turning to `CC(=O)NC[C@H]1CN(c2ccc(N3CCOCC3)c(F)c2)C(=O)O1` [Linezolid] + CC1(C)S[C@@H]2[C@H](NC(=O)Cc3ccccc3)C(=O)N2[C@H]1C(=O)O [PenicillinG], the Bliss interaction score with S. pneumoniae D39V was 0.0505; in the experiment on B. subtilis 168 it was -0.0653; in the experiment on S. aureus Newman, -0.0481; in the experiment with S. aureus DSM 20231, 0.0632.

Turning to `CO[C@@]12[C@H](COC(N)=O)C3=C(C(=O)C(C)=C(N)C3=O)N1C[C@@H]1N[C@@H]12` [MitomycinC] + CC1=C\[C@@H](O)CC(=O)Cc2nc(co2)C(=O)N2CCC=C2C(=O)O[C@H](C(C)C)[C@H](C)/C=C/C(=O)NC\C=C\1 [Virginiamycin M1], the Bliss interaction score was 0.0805 with S. pneumoniae D39V, 0.0757 with B. subtilis 168, -0.059 in the experiment with S. aureus Newman and 0.0401 with S. aureus DSM 20231.

For the molecule `CO[C@@]12[C@H](COC(N)=O)C3=C(C(=O)C(C)=C(N)C3=O)N1C[C@@H]1N[C@@H]12` [MitomycinC] + CN1C2=CC=CC=C2N=C3C1=CC=CC3=O [Pyocyanin], the Bliss interaction score in the experiment on S. pneumoniae D39V was 0.0705; in the experiment on B. subtilis 168 it was 0.0608; in the experiment with S. aureus Newman it was -0.0681; in the experiment with S. aureus DSM 20231, 0.0464.

As to `CC[C@H]1OC(=O)[C@H](C)[C@@H](O[C@H]2C[C@@](C)(OC)[C@@H](O)[C@H](C)O2)[C@H](C)[C@@H](O[C@@H]2O[C@H](C)C[C@H](N(C)C)[C@H]2O)[C@](C)(O)C[C@@H](C)C(=O)[C@H](C)[C@@H](O)[C@]1(C)O` [Erythromycin] + C[C@@H](O)[C@H]1C(=O)N2C(C(=O)O)=C(SCCNC=N)C[C@H]12 [Imipenem], the Bliss interaction score in the experiment with S. pneumoniae D39V is -0.0344; in the experiment with B. subtilis 168 it was 0.078; in the experiment with S. aureus Newman it was 0.0221; in the experiment with S. aureus DSM 20231, 0.0185.

For the molecule `CO[C@@]12[C@H](COC(N)=O)C3=C(C(=O)C(C)=C(N)C3=O)N1C[C@@H]1N[C@@H]12` [MitomycinC] + Oc1cc(Cl)ccc1Oc1ccc(Cl)cc1Cl [Triclosan], the Bliss interaction score with S. pneumoniae D39V is 0.0578; with B. subtilis 168, -0.0544; with S. aureus Newman, -0.0343; with S. aureus DSM 20231, -0.025.

Consider `CO[C@@]12[C@H](COC(N)=O)C3=C(C(=O)C(C)=C(N)C3=O)N1C[C@@H]1N[C@@H]12` [MitomycinC] + CO[C@H]1/C=C/O[C@@]2(C)Oc3c(C)c(O)c4c(O)c(c(/C=N/N5CCN(C)CC5)c(O)c4c3C2=O)NC(=O)/C(C)=C\C=C\[C@H](C)[C@H](O)[C@@H](C)[C@@H](O)[C@@H](C)[C@H](OC(C)=O)[C@@H]1C [Rifampicin], for which the Bliss interaction score was -0.117 with S. pneumoniae D39V, 0.155 in the experiment on B. subtilis 168, -0.0175 in the experiment with S. aureus Newman and -0.0914 in the experiment with S. aureus DSM 20231.

Regarding `CC[C@H]1OC(=O)[C@H](C)[C@@H](O[C@H]2C[C@@](C)(OC)[C@@H](O)[C@H](C)O2)[C@H](C)[C@@H](O[C@@H]2O[C@H](C)C[C@H](N(C)C)[C@H]2O)[C@](C)(O)C[C@@H](C)C(=O)[C@H](C)[C@@H](O)[C@]1(C)O` [Erythromycin] + COc1ccc(C[C@H](N)C(=O)N[C@H]2[C@@H](O)[C@H](n3cnc4c(N(C)C)ncnc43)O[C@@H]2CO)cc1 [Puromycin], the Bliss interaction score is -0.0449 with S. pneumoniae D39V, -0.0531 with B. subtilis 168, -0.0378 with S. aureus Newman and -0.0389 in the experiment on S. aureus DSM 20231.

In the case of `CC(=O)NC[C@H]1CN(c2ccc(N3CCOCC3)c(F)c2)C(=O)O1` [Linezolid] + CO[C@@]12[C@H](COC(N)=O)C3=C(C(=O)C(C)=C(N)C3=O)N1C[C@@H]1N[C@@H]12 [MitomycinC], the Bliss interaction score in the experiment with S. pneumoniae D39V is -0.0668; in the experiment on B. subtilis 168, 0.0314; in the experiment with S. aureus Newman, 0.0823; in the experiment with S. aureus DSM 20231, -0.068.

In the case of `CC[C@H](C)[C@H](N)C1=N[C@H](C(=O)N[C@@H](CC(C)C)C(=O)N[C@H](CCC(=O)O)C(=O)N[C@H](C(=O)N[C@H]2CCCCNC(=O)[C@H](CC(N)=O)NC(=O)[C@@H](CC(=O)O)NC(=O)[C@H](Cc3cnc[nH]3)NC(=O)[C@@H](Cc3ccccc3)NC(=O)[C@H]([C@@H](C)CC)NC(=O)[C@@H](CCCN)NC2=O)[C@@H](C)CC)CS1` [Bacitracin] + CC[C@H]1OC(=O)[C@H](C)C(=O)[C@H](C)[C@@H](O[C@@H]2O[C@H](C)C[C@H](N(C)C)[C@H]2O)[C@](C)(OC)C[C@@H](C)C(=O)[C@H](C)[C@H]2N(CCCCn3cnc(-c4cccnc4)c3)C(=O)O[C@]12C [Telithromycin], the Bliss interaction score was 0.0263 in the experiment with S. pneumoniae D39V (main component drawn), -0.0381 with B. subtilis 168 (main component drawn), -0.047 with S. aureus Newman (main component drawn) and -0.0302 with S. aureus DSM 20231 (main component drawn).

`CO[C@@]12[C@H](COC(N)=O)C3=C(C(=O)C(C)=C(N)C3=O)N1C[C@@H]1N[C@@H]12` [MitomycinC] + COc1ccc(C[C@H](N)C(=O)N[C@H]2[C@@H](O)[C@H](n3cnc4c(N(C)C)ncnc43)O[C@@H]2CO)cc1 [Puromycin]: the Bliss interaction score in the experiment with S. pneumoniae D39V was 0.0762; in the experiment with B. subtilis 168, -0.0693; with S. aureus Newman it was 0.0521; in the experiment on S. aureus DSM 20231, 0.0528.
